Source: publication PMC9962029, “Inhibition of Hepatitis B Virus (HBV) by Tachyplesin, a Marine Antimicrobial Cell-Penetrating Peptide” (Pharmaceutics, 2023)
Residues, ends and D or L forms follow the SMILES beside them.

Legend:
HepG2 cells = test: MTT cytotoxicity assay in HepG2 cells; assay type: cell-based, human; settings: 48 h, up to 12 µM Tpl, three independent experiments
Description: (§1) MTT assay was used to identify the non-cytotoxic concentrations of Tpl. Cell viability was measured using MTT (3-(4,5_dimethylthaizol-2-yl)-2,5-diphenyltetrazolium bromide) assay. Approximately 10,000 cells were seeded per well in 96-well plates and kept overnight at 37 °C and 5% CO2 to achieve more than 80% confluency. Thereafter, cells were treated with various concentrations of Tpl for 48 h. After 48 h, media was removed, and cells were washed with PBS. MTT reagent was added at a final concentration of 1 mg/mL and kept for 4 h at 37 °C and 5% CO2. Thereafter, 100 µL of DMSO was added to dissolve the formazan crystals formed, and absorbance was determined at a wavelength of 570 nm with a background wavelength of 630 nm (Multiskan GO microplate spectrophotometer, Thermo Scientific, Waltham, MA, USA).

Huh7 cells = test: MTT cytotoxicity assay in Huh7 cells; assay type: cell-based, human; settings: 48 h, up to 12 µM Tpl, three independent experiments
Description: as §1

Question: Which Cell viability (HepG2 cells) does the source give for `CC[C@H](C)[C@@H]1NC(=O)CNC(=O)[C@H](CCCNC(=N)N)NC(=O)[C@H](Cc2ccc(O)cc2)NC(=O)[C@@H]2CSSC[C@H](NC1=O)C(=O)N[C@@H](Cc1ccc(O)cc1)C(=O)N[C@@H](CCCNC(=N)N)C(=O)N[C@@H](CCCNC(=N)N)C(=O)N[C@H](C(=O)N[C@@H](CCCNC(=N)N)C(=O)NCC(=O)N[C@@H](CCCCN)C(N)=O)CSSC[C@H](NC(=O)[C@H](Cc1c[nH]c3ccccc13)NC(=O)[C@@H](N)CCCCN)C(=O)N[C@@H](Cc1ccccc1)C(=O)N[C@@H](CCCNC(=N)N)C(=O)N[C@@H](C(C)C)C(=O)N2` [Tpl] (HELM PEPTIDE1{K.W.C.F.R.V.C.Y.R.G.I.C.Y.R.R.C.R.G.K.[am]}$PEPTIDE1,PEPTIDE1,3:R3-16:R3|PEPTIDE1,PEPTIDE1,7:R3-12:R3$$$V2.0) here?
Answer: Its Cell viability is “more than 85%”.

Question: What about the Cell viability (Huh7 cells) of the same compound?
Answer: Its Cell viability is “more than 85%”.
